Data published in patent US20050065185A1, “Heterocyclylalkoxy-, -alkylthio- and -alkylaminobenzazole derivatives as 5-hydroxytryptamine-6 ligands” (Wyeth, priority 2001, published 2005).
Where a name gives a salt, the structure may show the parent alone.

Target: T1, human cloned 5-HT6 receptors (Homo sapiens, UniProt P50406)
T1 construct: expressed in transfected cells; host or cells: HeLa cells
Assay: 5-HT6 binding affinity, [3H]-LSD displacement on membranes of Hela cells expressing human cloned 5-HT6 receptors
Protocol: The affinity of test compounds for the serotonin 5-HT6 receptor is evaluated in the following manner. Cultured Hela cells expressing human cloned 5-HT6 receptors are harvested and centrifuged at low speed (1,000×g) for 10.0 min to remove the culture media. The harvested cells are suspended in half volume of fresh physiological phosphate buffered saline solution and recentrifuged at the same speed. This operation is repeated. The collected cells are then homogenized in ten volumes of 50 mM Tris.HCl (pH 7.4) and 0.5 mM EDTA. The homogenate is centrifuged at 40,000×g for 30.0 min and the precipitate is collected. The obtained pellet is resuspended in 10 volumes of Tris.HCl buffer and recentrifuged at the same speed. The final pellet is suspended in a small volume of Tris.HCl buffer and the tissue protein content is determined in aliquots of 10-25 μl volumes. Bovine Serum Albumin is used as the standard in the protein determination according to the method described in Lowry et al., J. Biol. Chem., 193:265 (1951). The volume of the suspended cell membranes is adjusted to give a tissue protein concentration of 1.0 mg/ml of suspension. The prepared membrane suspension (10 times concentrated) is aliquoted in 1.0 ml volumes and stored at −70° C. until used in subsequent binding experiments.
The reaction is allowed to proceed in the dark for 120 min at room temperature, at which time, the bound ligand-receptor complex is filtered off on a 96 well unifilter with a Packard Filtermate® 196 Harvester. The bound complex caught on the filter disk is allowed to air dry and the radioactivity is measured in a Packard TopCount® equipped with six photomultiplier detectors, after the addition of 40.0 μl Microscint®-20 scintillant to each shallow well. The unifilter plate is heat-sealed and counted in a PackardTopCount® with a tritium efficiency of 31.0%.
Binding in the presence of varying concentrations of test compound is expressed as a percentage of specific binding in the absence of test compound. The results are plotted as log % bound versus log concentration of test compound. […] A linear regression line of data points is plotted, from which the IC50 value is determined and the Ki value is determined based upon the following equation: Ki=IC50/(1+L/KD) where L is the concentration of the radioactive ligand used and KD is the dissociation constant of the ligand for the receptor, both expressed in nM.

T1 sequence (P50406 whole entry): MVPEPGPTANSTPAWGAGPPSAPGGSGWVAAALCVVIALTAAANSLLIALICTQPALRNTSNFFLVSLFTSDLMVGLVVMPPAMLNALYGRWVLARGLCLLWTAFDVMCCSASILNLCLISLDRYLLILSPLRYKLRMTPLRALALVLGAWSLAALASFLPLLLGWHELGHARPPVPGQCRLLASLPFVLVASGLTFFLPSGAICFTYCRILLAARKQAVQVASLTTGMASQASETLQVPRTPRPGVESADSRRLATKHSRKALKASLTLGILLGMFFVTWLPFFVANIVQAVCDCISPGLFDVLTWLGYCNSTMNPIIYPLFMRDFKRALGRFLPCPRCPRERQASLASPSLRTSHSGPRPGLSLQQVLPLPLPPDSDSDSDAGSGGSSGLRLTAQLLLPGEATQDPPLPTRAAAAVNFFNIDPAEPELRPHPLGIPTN

Row | SMILES | Ki
1 | O=S(=O)(c1ccccc1)n1ccc2c(OC[C@@H]3CCCN3)cccc21 [Example 3, 1-(Phenylsulfonyl)-4-[(2S)-pyrrolidin-2-ylmethoxy]-1H-indole hydrochloride] | 6 nM
2 | O=S(=O)(c1ccc(Cl)s1)n1ccc2c(OC[C@@H]3CCCN3)cccc21 [Example 4, 1-[(5-chlorothien-2-yl)sulfonyl]-4-[(2S)-pyrrolidin-2-ylmethoxy]-1H-indole] | 7 nM
3 | O=S(=O)(c1ccccc1F)n1ccc2c(OC[C@@H]3CCCN3)cccc21 [Example 5, 1-[(2-fluorophenyl)sulfonyl)-4-[(2S)-pyrrolidin-2-ylmethoxy]-1H-indole] | 2 nM
4 | O=S(=O)(c1cccc(F)c1)n1ccc2c(OC[C@@H]3CCCN3)cccc21 [Example 6, 1-[(3-fluorophenyl)sulfonyl)-4-[(2S)-pyrrolidin-2-ylmethoxy]-1H-indole] | 8 nM
5 | O=S(=O)(c1ccc(F)cc1)n1ccc2c(OC[C@@H]3CCCN3)cccc21 [Example 7, 1-[(4-fluorophenyl)sulfonyl)-4-[(2S)-pyrrolidin-2-ylmethoxy]-1H-indole] | 31 nM
6 | COc1ccc(S(=O)(=O)n2ccc3c(OC[C@@H]4CCCN4)cccc32)cc1OC [Example 8, 1-[(3,4-dimethoxyphenyl)sulfonyl)-4-[(2S)-pyrrolidin-2-ylmethoxy]-1H-indole] | 95 nM
7 | Nc1ccc(S(=O)(=O)n2ccc3c(OC[C@@H]4CCCN4)cccc32)cc1 [Example 9] | 1 nM
8 | O=S(=O)(c1ccccc1)n1ccc2c(OC[C@H]3CCCN3)cccc21 [Example 11, 1-(Phenylsulfonyl)-4-[(2R)-]pyrrolidin-2-ylmethoxy]-1H-indole hydrochloride] | 106 nM
9 | O=S(=O)(c1cccc2cccnc12)n1ncc2c(OC[C@@H]3CCCN3)cccc21 [Example 16, 8-({4-[(2S)-pyrrolidin-2-ylmethoxy]-1H-indazol-1-yl}sulfonyl)quinoline] | 85 nM
10 | O=S(=O)(c1ccccc1F)n1ncc2c(OC[C@@H]3CCCN3)cccc21 [Example 18, 1-[(2-fluorophenyl)sulfonyl]-4-[(2S)-pyrrolidin-2-ylmethoxy]-1H-indazole] | 8 nM

Next, values leading:

Row | Ki | SMILES
11 | 7 nM | O=S(=O)(c1ccccc1)n1ncc2c(OC[C@@H]3CCCN3)cccc21 [Example 15, 1-(Phenylsulfonyl)-4-[(2S)-pyrrolidin-2-ylmethoxy]-1H-indazole trifluoroacetic acid salt]
12 | 5 nM | O=S(=O)(c1ccccc1Cl)n1ncc2c(OC[C@@H]3CCCN3)cccc21 [Example 17, 1-[(2-chlorophenyl)sulfonyl]-4-[(2S)-pyrrolidin-2-ylmethoxy]-1H-indazole]
13 | 5 nM | O=S(=O)(c1ccc(Cl)s1)n1ncc2c(OC[C@@H]3CCCN3)cccc21 [Example 19, 1-[(5-chlorothien-2-yl)sulfonyl]-4-[(2S)-pyrrolidin-2-ylmethoxy]-1H-indazole]
14 | 9 nM | Nc1ccc(S(=O)(=O)n2ncc3c(OC[C@@H]4CCCN4)cccc32)cc1 [Example 20, 4-({4-[(2S)-pyrrolidin-2-ylmethoxy}-1H-indazol-1-yl}sulfonyl)aniline]
15 | 16 nM | Nc1ccc(S(=O)(=O)n2ncc3c(OC[C@@H]4CCCN4)cccc32)cc1Cl [Example 21, 2-chloro-4-({4-[(2S)-pyrrolidin-2-ylmethoxy]-1H-indazol-1-yl}sulfonyl)aniline]

Test system: not given
Assay: not given

Row | SMILES | melting point
16 | O=S(=O)(c1ccc(Cl)s1)n1ccc2c(OC[C@@H]3CCCN3)cccc21 (as salt: hydrochloride) [Example 4, 1-[(5-chlorothien-2-yl)sulfonyl]-4-[(2S)-pyrrolidin-2-ylmethoxy]-1H-indole] | 204 to 206 °C
17 | O=S(=O)(c1ccccc1F)n1ccc2c(OC[C@@H]3CCCN3)cccc21 (as salt: hydrochloride) [Example 5, 1-[(2-fluorophenyl)sulfonyl)-4-[(2S)-pyrrolidin-2-ylmethoxy]-1H-indole] | 153 to 155 °C
18 | O=S(=O)(c1cccc(F)c1)n1ccc2c(OC[C@@H]3CCCN3)cccc21 (as salt: hydrochloride) [Example 6, 1-[(3-fluorophenyl)sulfonyl)-4-[(2S)-pyrrolidin-2-ylmethoxy]-1H-indole] | 160 to 162 °C
19 | O=S(=O)(c1ccc(F)cc1)n1ccc2c(OC[C@@H]3CCCN3)cccc21 (as salt: hydrochloride) [Example 7, 1-[(4-fluorophenyl)sulfonyl)-4-[(2S)-pyrrolidin-2-ylmethoxy]-1H-indole] | 258 °C (dec.)
20 | COc1ccc(S(=O)(=O)n2ccc3c(OC[C@@H]4CCCN4)cccc32)cc1OC (as salt: hydrochloride) [Example 8, 1-[(3,4-dimethoxyphenyl)sulfonyl)-4-[(2S)-pyrrolidin-2-ylmethoxy]-1H-indole] | 115 °C (dec.)
21 | Nc1ccc(S(=O)(=O)n2ccc3c(OC[C@@H]4CCCN4)cccc32)cc1 (as salt: hydrochloride) [Example 9] | 150 °C (dec.)
22 | O=S(=O)(c1ccccc1F)n1ncc2c(OC[C@@H]3CCCN3)cccc21 (as salt: hydrochloride) [Example 18, 1-[(2-fluorophenyl)sulfonyl]-4-[(2S)-pyrrolidin-2-ylmethoxy]-1H-indazole] | 145 to 148 °C
23 | O=S(=O)(c1cccc2cccnc12)n1ncc2c(OC[C@@H]3CCCN3)cccc21 [Example 16, 8-({4-[(2S)-pyrrolidin-2-ylmethoxy]-1H-indazol-1-yl}sulfonyl)quinoline] | 217 to 218 °C

Now from value to compound:

Row | melting point | SMILES
24 | > 255 °C (dec.) | O=S(=O)(c1ccccc1Cl)n1ncc2c(OC[C@@H]3CCCN3)cccc21 (as salt: hydrochloride) [Example 17, 1-[(2-chlorophenyl)sulfonyl]-4-[(2S)-pyrrolidin-2-ylmethoxy]-1H-indazole]
25 | 195 °C | O=S(=O)(c1ccc(Cl)s1)n1ncc2c(OC[C@@H]3CCCN3)cccc21 (as salt: hydrochloride) [Example 19, 1-[(5-chlorothien-2-yl)sulfonyl]-4-[(2S)-pyrrolidin-2-ylmethoxy]-1H-indazole]
26 | 150 to 155 °C | Nc1ccc(S(=O)(=O)n2ncc3c(OC[C@@H]4CCCN4)cccc32)cc1 (as salt: hydrochloride) [Example 20, 4-({4-[(2S)-pyrrolidin-2-ylmethoxy}-1H-indazol-1-yl}sulfonyl)aniline]
27 | 220 °C (dec.) | Nc1ccc(S(=O)(=O)n2ncc3c(OC[C@@H]4CCCN4)cccc32)cc1Cl (as salt: hydrochloride) [Example 21, 2-chloro-4-({4-[(2S)-pyrrolidin-2-ylmethoxy]-1H-indazol-1-yl}sulfonyl)aniline]
